In US7087433B2, “7SK RNA regulated transcription” (The Regents of the University of California, priority 2002, dated 2006):
Starred links: 1 amine or outer side, 2 acyl side, 3 side chain; linkers in the order of their positions; H or OH if unused. Positions of bridges follow the written chain, without caps; N, C: chain ends. Non-standard residues stand in square brackets, D forms with d. Residues, ends and D or L forms follow the SMILES beside them. Chains are numbered I, II in the order given. Actinocin(9to1) = Cc1c2oc3c(C)ccc(C(=O)[*:1])c3nc-2c(C(=O)[*:2])c(N)c1=O; NMeV = CN[C@H](C(=O)O)C(C)C; Sar = CNCC(=O)O

B1: RNase A: ribonuclease used to degrade the CDK9-Flag-associated 7SK (protein, UniProt P61823 27-150, looked up)
Ribonuclease pancreatic: KETAAAKFERQHMDSSTSAASSSNYCNQMMKSRNLTKDRCKPVNTFVHESLADVQAVCSQKNVACKNGQTNCYQSYSTMSITDCRETGSSKYPNCAYKTTQANKHIIVACEGNPYVPVHFDASV

Assays:
7SK/P-TEFb interaction [1] = experiment: 7SK/P-TEFb interaction in nuclear extracts of treated F1C2 cells; format: cell-based, human; conditions: nuclear extract
Source text: Certain agents that elicit SOS-like stress responses in mammalian cells can markedly enhance HIV-1 transcription in a manner analogous to prophage induction in Escherichia coli (6–8,20,21). […] In light of these observations, we investigated the effect of ultraviolet irradiation and actinomycin D on the 7SK/P-TEFb interaction in nuclear extracts of the treated F1C2 cells. […] Neither the level of total 7SK in the nuclear extract nor the CDK9/cyclin T1 interaction was affected. […] As for ultraviolet irradiation, 7SK was dissociated from P-TEFb as early as 15–30 min after treatment, long before any signs of apoptosis appeared. Thus, stress signals such as ultraviolet irradiation and actinomycin D can cause fast and efficient 7SK dissociation from P-TEFb, which explains their positive effects on HIV-1 transcription and Pol II phosphorylation.

7SK/P-TEFb interaction [2] = target: T1, 7SK/P-TEFb interaction (Homo sapiens, UniProt P50750); experiment: Direct incubation with nuclear extract, 7SK/P-TEFb interaction; format: binding
T1 construct: expressed in transfected cells; host or cells: F1C2 cell line (HeLa stably transfected with pBabe-puro-CDK9-Flag)
T1 sequence (P50750 whole entry): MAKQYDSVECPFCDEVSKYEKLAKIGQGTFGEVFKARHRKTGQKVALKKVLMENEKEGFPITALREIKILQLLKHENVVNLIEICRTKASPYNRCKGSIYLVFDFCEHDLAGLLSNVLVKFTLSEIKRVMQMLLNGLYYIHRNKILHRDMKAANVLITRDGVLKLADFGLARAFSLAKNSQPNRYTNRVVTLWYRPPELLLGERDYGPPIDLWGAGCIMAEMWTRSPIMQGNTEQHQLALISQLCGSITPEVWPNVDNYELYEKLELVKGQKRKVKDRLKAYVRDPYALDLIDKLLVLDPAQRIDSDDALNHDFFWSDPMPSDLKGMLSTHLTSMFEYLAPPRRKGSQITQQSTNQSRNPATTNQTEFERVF
T1 sequence (O60563 whole entry partner): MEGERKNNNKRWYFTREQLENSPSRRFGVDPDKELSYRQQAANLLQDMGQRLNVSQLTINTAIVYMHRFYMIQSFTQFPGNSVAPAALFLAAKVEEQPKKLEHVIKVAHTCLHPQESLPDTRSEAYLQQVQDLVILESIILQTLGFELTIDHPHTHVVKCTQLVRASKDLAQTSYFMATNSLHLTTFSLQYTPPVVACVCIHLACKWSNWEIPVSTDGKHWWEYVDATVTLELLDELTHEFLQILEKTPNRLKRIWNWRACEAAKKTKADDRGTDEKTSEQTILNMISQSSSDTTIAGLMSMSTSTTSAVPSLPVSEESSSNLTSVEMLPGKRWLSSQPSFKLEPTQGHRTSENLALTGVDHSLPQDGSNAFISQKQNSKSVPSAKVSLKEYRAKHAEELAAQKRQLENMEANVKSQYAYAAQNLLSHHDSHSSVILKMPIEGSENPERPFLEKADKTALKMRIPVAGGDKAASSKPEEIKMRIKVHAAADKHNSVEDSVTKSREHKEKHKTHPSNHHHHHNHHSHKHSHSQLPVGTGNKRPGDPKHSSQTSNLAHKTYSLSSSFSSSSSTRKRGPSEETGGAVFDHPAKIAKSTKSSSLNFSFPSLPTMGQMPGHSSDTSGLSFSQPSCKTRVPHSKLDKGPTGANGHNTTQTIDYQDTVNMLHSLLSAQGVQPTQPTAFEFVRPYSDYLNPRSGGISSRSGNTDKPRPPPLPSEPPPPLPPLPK

HIV-1 transcription = conditions: HeLa cells, low levels of drug; cited from earlier work
CDK9/cyclin T1 kinase = experiment: CDK9-Flag kinase reaction with purified RNA Pol II as substrate; format: biochemical, human; conditions: affinity-purified CDK9-Flag; degradation of associated 7SK
Protocol: 7SK could inhibit the activity of P-TEFb by suppressing the kinase activity of CDK9/cyclin T1. Affinity-purified CDK9-Flag and its associated factors were divided into two halves, incubated respectively with RNase A and DNase I, and tested in kinase reactions containing purified RNA Pol II as a substrate (9). […] This increase was significant given that only about 50% of the purified CDK9-Flag/cyclin T1 was associated with 7SK. […] To analyse more specifically the activity of P-TEFb bound to 7SK, this complex was affinity purified from HeLa nuclear extract using the 7SK antisense 2′-OMe RNA beads. Eluted with a displacement deoxyoligonucleotide (15), the P-TEFb bound to 7SK was divided into three equal portions, incubated respectively with RNase A, DNase I or buffer alone, and analysed in kinase reactions.

| Molecule | amount of 7SK associated with affinity-purified CDK9-Flag (7SK/P-TEFb interaction [1]) | 7SK/P-TEFb interaction (7SK/P-TEFb interaction [2]) | HIV-1 transcription (HIV-1 transcription) | increase of kinase activity of CDK9-Flag (autophosphorylation and phosphorylation of Pol II) (CDK9/cyclin T1 kinase) |
| --- | --- | --- | --- | --- |
| Cc1c2oc3c(C)ccc(C(=O)N[C@@H]4C(=O)N[C@H](C(C)C)C(=O)N5CCC[C@H]5C(=O)N(C)CC(=O)N(C)[C@@H](C(C)C)C(=O)O[C@@H]4C)c3nc-2c(C(=O)N[C@@H]2C(=O)N[C@H](C(C)C)C(=O)N3CCC[C@H]3C(=O)N(C)CC(=O)N(C)[C@@H](C(C)C)C(=O)O[C@@H]2C)c(N)c1=O [actinomycin D] (I: T[dV]P[Sar][NMeV] / II: T[dV]P[Sar][NMeV]; ester I:1-I:C, II:1-II:C; linker I:N-II:N via Actinocin(9to1)) | significantly reduced the amount of 7SK associated with the affinity-purified CDK9-Flag | did not disrupt the 7SK/P-TEFb interaction | enhances HIV-1 transcription to levels similar to those obtained by Tat | – |
| B1 | – | – | – | 3-4 fold |
